Source: patent US5834433A, “Compounds and pharmaceutical uses of peptides of bombesin and GRP” (Merrell Pharmaceuticals Inc., priority 1996, dated 1998)
Non-standard residues stand in square brackets, D forms with d. Residues, ends and D or L forms follow the SMILES beside them. *: point of attachment. Palmitoyl = CCCCCCCCCCCCCCCC(=O)*; Lauroyl = CCCCCCCCCCCC(=O)*; Octanoyl = CCCCCCCC(=O)*

Molecular target: T1, bombesin receptor (Mus musculus, UniProt P21729)
T1 construct: The pancreata from one or more mice were pooled, minced, and homogenized; from tissue; host or cells: mouse pancreas (membrane pellet in A1; chopped tissue in A2)
Experiment: Competition at the bombesin receptor for iodinated GRP (125I-GRP), mouse pancreas membranes
Parameters: species or system mice
Conditions: 125I-GRP competition, read-out: Binding KD
Experimental: The pancreata from one or more mice were pooled, minced, and homogenized in 50 mM HEPES (pH 7.4) containing 120 mM NaCl and 5 mM KC1 at 4° C. and centrifuged at 37,500 ×g for 15 minutes. The pellet was resuspended in 50 mM HEPES (pH 7.4) containing 10 mM EDTA and 300 mM KC1 and incubated for 30 minutes at 4° C. The suspension was centrifuged as above and the pellet was washed two times in 50 mM HEPES (pH 7.4) containing protease inhibitors (10 uM phenylmethylsulfonyl fluoride, 1 uM thiorphan, 40 ug/ml bacitracin, 10 mM iodoacetimide and 4 ug/ml leupeptin), and again centrifuged. The tissue was then resuspended in incubation buffer (1 ml per 4 mg pancreas) and incubated for 15 minutes at room temperature, then 250 ul was added to each assay tube to commence the assay. The assay tubes contained incubation buffer consisting of 50 mM HEPES (pH 7.4), 0.5% BSA, protease inhibitors, 2 mM MnCl2, 1 uM somatostatin, and concentrations of ^125 I-GRP and peptides as needed in a final volume of 500 ul. The assay was allowed to proceed to equilibrium for 90 minutes at room temperature. After this time, the contents of each tube was rapidly filtered over Whatman GF/B filters presoaked in 0.1% polyethyleneimine and the filters were rapidly washed three times with ice-cold 50 mM HEPES (pH 7.4). Filter-bound radioactivity was quantitated in a gamma counter. Competition of iodinated GRP binding by test compounds or standards was expressed as a percentage of ^125 I-GRP binding in the absence of peptide. Affinity and maximal binding were calculated with Ligand (Biosoft, Cambridge, UK).

T1 sequence (P21729 whole entry): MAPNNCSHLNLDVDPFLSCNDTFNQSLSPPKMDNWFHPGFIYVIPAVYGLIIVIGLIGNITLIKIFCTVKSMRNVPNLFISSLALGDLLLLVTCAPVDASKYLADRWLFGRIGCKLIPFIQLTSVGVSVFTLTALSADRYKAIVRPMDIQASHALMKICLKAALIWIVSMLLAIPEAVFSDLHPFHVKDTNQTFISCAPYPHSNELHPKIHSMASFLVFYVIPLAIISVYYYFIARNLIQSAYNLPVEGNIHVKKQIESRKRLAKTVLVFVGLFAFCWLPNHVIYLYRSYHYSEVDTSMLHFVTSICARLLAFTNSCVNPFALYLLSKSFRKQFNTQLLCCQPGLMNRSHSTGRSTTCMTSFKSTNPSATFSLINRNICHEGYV

| SMILES | Kd [µM] |
| --- | --- |
| CCCCCCCC(=O)N[C@@H](CCC(N)=O)C(=O)N[C@@H](Cc1c[nH]c2ccccc12)C(=O)N[C@@H](C)C(=O)N[C@H](C(=O)N[C@H](C)C(=O)N[C@@H](Cc1c[nH]cn1)C(=O)N[C@@H](CC(C)C)C(N)=O)C(C)C [Example 1, N-(n-Octanoyl)-Gln-Trp-Ala-Val-ala-His-Leu-NH2] (Octanoyl-QWAV[dA]HL-NH2) | 0.005 |
| CCCCCCCCCCCC(=O)N[C@@H](CCC(N)=O)C(=O)N[C@@H](Cc1c[nH]c2ccccc12)C(=O)N[C@@H](C)C(=O)N[C@H](C(=O)N[C@H](C)C(=O)N[C@@H](Cc1c[nH]cn1)C(=O)N[C@@H](CC(C)C)C(N)=O)C(C)C [Example 2, N-(Lauroyl)-Gln-Trp-Ala-Val-ala-His-Leu-NH2] (Lauroyl-QWAV[dA]HL-NH2) | 0.32 |
| CCCCCCCCCCCCCCCC(=O)N[C@@H](CCC(N)=O)C(=O)N[C@@H](Cc1c[nH]c2ccccc12)C(=O)N[C@@H](C)C(=O)N[C@H](C(=O)N[C@H](C)C(=O)N[C@@H](Cc1c[nH]cn1)C(=O)N[C@@H](CC(C)C)C(N)=O)C(C)C [Example 3, N-(Palmitoyl)-Gln-Trp-Ala-Val-ala-His-Leu-NH2] (Palmitoyl-QWAV[dA]HL-NH2) | 0.35 |
| CCCCCCCC(=O)N[C@@H](CCC(N)=O)C(=O)N[C@@H](Cc1c[nH]c2ccccc12)C(=O)N[C@@H](C)C(=O)N[C@H](C(=O)N[C@H](C)C(=O)N[C@@H](Cc1c[nH]cn1)C(N)=O)C(C)C [Example 4, N-(n-Octanoyl)-Gln-Trp-Ala-Val-ala-His-NH2] (Octanoyl-QWAV[dA]H-NH2) | 0.058 |
| CC(=O)N[C@@H](CCC(N)=O)C(=O)N[C@@H](Cc1c[nH]c2ccccc12)C(=O)N[C@@H](C)C(=O)N[C@H](C(=O)N[C@H](C)C(=O)N[C@@H](Cc1c[nH]cn1)C(N)=O)C(C)C [Nα-AcetylQ W A V a H #] (Ac-QWAV[dA]H-NH2) | 1.5 |
| CC(=O)N[C@@H](CCC(N)=O)C(=O)N[C@@H](Cc1c[nH]c2ccccc12)C(=O)N[C@@H](C)C(=O)N[C@H](C(=O)N[C@H](C)C(=O)N[C@@H](Cc1c[nH]cn1)C(=O)N[C@@H](CC(C)C)C(N)=O)C(C)C [Nα-AcetylQ W A V a H L #] (Ac-QWAV[dA]HL-NH2) | 0.069 |
| CC(=O)N[C@@H](Cc1c[nH]c2ccccc12)C(=O)N[C@@H](C)C(=O)N[C@H](C(=O)N[C@H](C)C(=O)N[C@@H](Cc1c[nH]cn1)C(N)=O)C(C)C [Nα-AcetylW A V a H #] (Ac-WAV[dA]H-NH2) | > 10 |
| CCCCCCCCCCCC(=O)N[C@@H](CCC(N)=O)C(=O)N[C@@H](Cc1c[nH]c2ccccc12)C(=O)N[C@@H](C)C(=O)N[C@H](C(=O)N[C@H](C)C(=O)N[C@@H](Cc1c[nH]cn1)C(N)=O)C(C)C [Nα-LaurylQ W A V a H #] (Lauroyl-QWAV[dA]H-NH2) | > 10 |
| CCCCCCCCCCCC(=O)N[C@@H](Cc1c[nH]c2ccccc12)C(=O)N[C@@H](C)C(=O)N[C@H](C(=O)N[C@H](C)C(=O)N[C@@H](Cc1c[nH]cn1)C(N)=O)C(C)C [Nα-LaurylW A V a H #] (Lauroyl-WAV[dA]H-NH2) | > 10 |
| CCCCCCCC(=O)N[C@@H](Cc1c[nH]c2ccccc12)C(=O)N[C@@H](C)C(=O)N[C@H](C(=O)N[C@H](C)C(=O)N[C@@H](Cc1c[nH]cn1)C(N)=O)C(C)C [Nα-OctylW A V a H #] (Octanoyl-WAV[dA]H-NH2) | > 10 |
| CCCCCCCCCCCCCCCC(=O)N[C@@H](CCC(N)=O)C(=O)N[C@@H](Cc1c[nH]c2ccccc12)C(=O)N[C@@H](C)C(=O)N[C@H](C(=O)N[C@H](C)C(=O)N[C@@H](Cc1c[nH]cn1)C(N)=O)C(C)C [Nα-PalmitylQ W A V a H #] (Palmitoyl-QWAV[dA]H-NH2) | > 10 |
| CCCCCCCCCCCCCCCC(=O)N[C@@H](Cc1c[nH]c2ccccc12)C(=O)N[C@@H](C)C(=O)N[C@H](C(=O)N[C@H](C)C(=O)N[C@@H](Cc1c[nH]cn1)C(N)=O)C(C)C [Nα-PalmitylW A V a H #] (Palmitoyl-WAV[dA]H-NH2) | > 10 |
